In data set [1] the test system is HT-29. As to the kind of experiment: Antiproliferative activity against human HT-29 cells after 72 hrs by MTT assay. Conditions: HT-29, 72 h. The data set is classed as functional, cell-based. For orientation: Tetrazolium dyes change colour on reduction, which living cells bring about.
Another data set relates to A549. The data set can be described thus: Antiproliferative activity against human A549 cells after 72 hrs by MTT assay. The data set is classed as functional, cell-based. The following applies: A549, 72 h.
The subject of the next data set is MDA-MB-231. The data set can be described thus: Antiproliferative activity against human MDA-MB-231 cells after 72 hrs by MTT assay. The class given is functional, cell-based. The following applies: MDA-MB-231, 72 h.
The next data set has as its system A549/CDDP. The data set can be described thus: Antiproliferative activity against human A549/CDDP cells after 72 hrs by MTT assay. The class given is functional, cell-based.
In data set [2] the test system is HT-29. As to the kind of experiment: Antiproliferative activity against human HT-29 cells at 3.33 ug/ml after 36 to 72 hrs by phase contrast microscopy. The data set is classed as functional, cell-based.
The subject of data set [3] is HT-29. As to the kind of experiment: Induction of apoptosis in human HT-29 cells assessed as late apoptotic cells at 5 ug/mL after 72 hrs by Annexin V-FITC/propidium iodide staining-based flow cytometric analysis (reference value: 0.1%). The data set is classed as functional. For orientation: A flow cytometer gives signals particle by particle.
A further data set deals with FHC. As to the kind of experiment: Cytotoxicity against human FHC cells after 72 hrs by MTT assay. The class given is cell-based.
Data set [4] deals with HT-29. The data set can be described thus: Antiproliferative activity against human HT-29 cells at 10 ug/ml after 72 hrs by IncuCyte live-cell imaging assay. The data set is classed as functional, cell-based.
For data set [5], the system named is HT-29. The data set can be described thus: Antimigratory activity against human HT-29 cells at 3.33 ug/mL after 48 to 72 hrs by wound healing assay. The class given is functional, cell-based.
Data set [6] is described as follows: Antiproliferative activity against human MCF7/DX cells after 72 hrs by MTT assay. The class given is functional, cell-based.
Data set [7] deals with HT-29. The data set can be described thus: Cytotoxicity against human HT-29 cells assessed as increase in dead cells at 10 ug/mL up to 36 hrs by yoyo-1 dye-based fluorescence assay. The class given is functional, cell-based.
Data set [8] has as its system HT-29. The data set can be described thus: Induction of apoptosis in human HT-29 cells assessed as early apoptotic cells at 5 ug/mL after 72 hrs by Annexin V-FITC/propidium iodide staining-based flow cytometric analysis (reference value: 0%). The class given is functional.
A further data set deals with MCF7. The data set can be described thus: Antiproliferative activity against human MCF7 cells after 72 hrs by MTT assay. The class given is functional, cell-based. The following applies: MCF7, 72 h.
Data set [9] is described as follows: Selectivity index, ratio of IC50 for human FHC cells to IC50 for human HT-29 cells. The following applies: FHC cells and HT-29 cells, read-out: Ratio IC50. The class given is toxicity.

A word on the pIC50: it is −log10 of the IC50, conventionally taken in molar units.

pIC50: −log10 of the molar value. Calls of active or inactive are those of the source. No cut-off for these calls is given here.

In the case of `COc1cc2c(Oc3ccc(NC(=O)NN4C(=O)CSC4c4c(F)cccc4F)cc3F)ccnc2cc1OCCCN1CCCC1` (stereo not given), the pIC50 in the data set with HT-29 [1] was 6.46; in the data set on A549, 6.16; in the data set on MDA-MB-231, 5.04.
On the same counts, the results for `COc1cc2c(Oc3c(F)cc(NC(=S)NN4C(=O)CSC4c4c(F)cccc4F)cc3F)ccnc2cc1OCCCN1CCCC1` (stereo not given) are 6.39, 6.16 and 5.09.
On the same counts, the results for `COc1cc2c(Oc3c(F)cc(NC(=O)NN4C(=O)CCSC4c4c(F)cccc4F)cc3F)ccnc2cc1OCCCN1CCC(C)CC1` (stereo not given) are 6.39, 5.79 and 5.36.
Take `COc1cc2c(Oc3ccc(NC(=O)NN4C(=O)CSC4c4c(F)cccc4F)c4ccccc34)ccnc2cc1OCCCN1CCCC1` (stereo not given): the negative logarithm of the IC50 (pIC50) in the data set with HT-29 [1] was 5.73; in the data set with A549 it was 5.63.
As for `COc1cc2c(Oc3c(F)cc(NC(=O)NN4C(=O)C(C)(C)SC4c4c(F)cccc4F)cc3F)ccnc2cc1OCCCN1CCCC1` (stereo not given), the pIC50 in the data set on HT-29 [1] is 6.02; in the data set with A549 it was 5.84.
For the compound `COc1cc2c(Oc3c(F)cc(NC(=O)NN4C(=O)CCSC4c4c(F)cccc4F)cc3F)ccnc2cc1OCCCN1CCc2sccc2C1` (stereo not given), the negative-log IC50 (pIC50) in the data set on HT-29 [1] is 5.88; with A549, less than 4.70.
Take `COc1cc2nccc(Oc3ccc(NC(=O)C4(C(=O)Nc5ccc(F)cc5)CC4)cc3)c2cc1OC` [CABOZANTINIB]: the pIC50 was 4.94 in the data set with HT-29 [1]; 4.71 in the data set on A549/CDDP; 5.36 with FHC; 5.02 in the data set with A549; 4.87 with MDA-MB-231; less than 4.30 in data set [6]. This compound also showed a negative-log IC50 (pIC50) in the data set with MCF7 of 5.07. The outcome in the data set with HT-29 [2], in the data set with HT-29 [4], in the data set on HT-29 [5] and in the data set with HT-29 [7] was Active. The Activity stood at 10.9% with HT-29 [3] and 78.4% in the data set on HT-29 [8].
On to `COc1cc2c(Oc3c(F)cc(NC(=O)NN4C(=O)CSC4c4c(F)cccc4F)cc3F)ccnc2cc1OCCCN1CCc2sccc2C1` (stereo not given), for which the pIC50 in the data set with HT-29 [1] is 5.85; in the data set with A549, less than 4.70.
Turning to `CCN1CCN(CCOc2cc3nccc(Oc4c(F)cc(NC(=O)NN5C(=O)CSC5c5c(F)cccc5F)cc4F)c3cc2OC)CC1` (stereo not given), the pIC50 with HT-29 [1] is 6.46; in the data set with A549, 5.82; with MDA-MB-231, 5.23.
On the same counts, the results for `COc1cc2c(Oc3c(F)cc(NC(=O)NN4C(=O)CSC4c4c(F)cccc4F)cc3F)ccnc2cc1OCCCN1CCC(N2CCCCC2)CC1` (stereo not given) are 6.55, 6.42 and 5.27.
On the same counts, the results for `COc1cc2c(Oc3c(F)cc(NC(=O)NN4C(=O)CSC4c4c(F)cccc4F)cc3F)ccnc2cc1OCCCN1CCN(C)CC1` (stereo not given) are 6.82, 6.29 and 5.36.
On the same counts, the results for `COc1cc2c(Oc3c(F)cc(NC(=O)NN4C(=O)CCSC4c4c(F)cccc4F)cc3F)ccnc2cc1OCCCN1CCCC1` (stereo not given) are 6.57, 6.40 and 5.02.
Take `COc1cc2c(Oc3c(F)cc(NC(=O)NN4C(=O)CSC4c4c(F)cccc4F)cc3F)ccnc2cc1OCCCN1CCC(C)CC1` (stereo not given): the pIC50 with HT-29 [1] is 6.66; in the data set with A549, 6.01; in the data set with MDA-MB-231 it was 5.42.
Turning to `COc1cc2c(Oc3c(F)cc(NC(=O)NN4C(=O)CSC4c4c(F)cccc4F)cc3F)ccnc2cc1OCCN1CCC(N2CCCCC2)CC1` (stereo not given), the pIC50 was 6.31 in the data set with HT-29 [1] and 5.62 in the data set on A549.
Consider `CCN(CC)CCCOc1cc2nccc(Oc3c(F)cc(NC(=O)NN4C(=O)CSC4c4c(F)cccc4F)cc3F)c2cc1OC` (stereo not given), for which the pIC50 with HT-29 [1] is 7.04; in the data set with A549/CDDP, 6.27; in the data set with FHC it was 6.27; in the data set with A549 it was 6.35; with MDA-MB-231 it was 5.42; in data set [6] it was 5.47. Moreover, in the data set with MCF7, the pIC50 is 5.80. Moreover, the selectivity ratio in data set [9] is 5.9.
Take `COc1cc2c(Oc3c(F)cc(NC(=O)NN4C(=O)C(C)SC4c4c(F)cccc4F)cc3F)ccnc2cc1OCCCN1CCCC1` (stereo not given): the figures for the pIC50 with HT-29 [1] and in the data set on A549 were 6.17 and 6.08, respectively.
On the same counts, the results for `COc1cc2c(Oc3ccc(NC(=O)NN4C(=O)CSC4c4c(F)cccc4F)c(Cl)c3)ccnc2cc1OCCCN1CCCC1` (stereo not given) are 6.20 and 6.02.
On the same counts, the results for `COc1cc2c(Oc3ccc(NC(=O)NN4C(=O)CSC4c4c(F)cccc4F)cc3Cl)ccnc2cc1OCCCN1CCCC1` (stereo not given) are 6.32 and 6.06.
`CCN1CCN(CCCCOc2cc3nccc(Oc4c(F)cc(NC(=O)NN5C(=O)CSC5c5c(F)cccc5F)cc4F)c3cc2OC)CC1` (stereo not given): the pIC50 in the data set on HT-29 [1] was 6.08; in the data set with A549 it was 5.86.
Consider `COc1cc2c(Oc3c(F)cc(NC(=O)NN4C(=O)CSC4c4c(F)cccc4F)cc3F)ccnc2cc1OCCCN1CCCC1` (stereo not given), for which the figures for the pIC50 with HT-29 [1], with A549 and with MDA-MB-231 were 6.64, 6.25 and 5.08, respectively.
Regarding `COc1cc2c(Oc3c(F)cc(NC(=O)NN4C(=O)CCSC4c4c(F)cccc4F)cc3F)ccnc2cc1OCCCN1C[C@H]2CCCC[C@H]2C1` (stereo not given in full), the values for the negative-log IC50 (pIC50) in the data set on HT-29 [1] and with A549 were 6.10 and 5.44, respectively.
On the same counts, the results for `COc1cc2c(Oc3c(F)cc(NC(=O)NN4C(=O)CSC4c4c(F)cccc4F)cc3F)ccnc2cc1OCCCN1C[C@H]2CCCC[C@H]2C1` (stereo not given in full) are 6.33 and 5.71.

(Values after ChEMBL document CHEMBL4330059, “Discovery of N1-(4-((7-(3-(4-ethylpiperazin-1-yl)propoxy)-6-methoxyquinolin-4-yl)oxy)-3,5-difluorophenyl)-N3-(2-(2,6-difluorophenyl)-4-oxothiazolidin-3-yl)urea as a multi-tyrosine kinase inhibitor for drug-sensitive and drug-resistant cancers treatment” (Eur J Med Chem, 2019).)
